One compound from patent US6593329B1, “Method for the treatment or prevention of coronary graft vasospasm” (Orion Corporation, priority 1999, dated 2003) can be followed below.

This assay concerns human internal mammary artery (IMA) preparations. The experiment in a line: Prevention of noradrenaline-induced vasospasm in isolated human internal mammary artery rings (isolated ring technique). It is filed as cell-based. The conditions noted are these: for Prevention (%) of graft vasospasm (as % of maximal attainable spasm): IMA rings contracted with noradrenaline 1-10 μM, per patient and mean. The protocol: The effect of levosimendan to prevent vasospasm was investigated in human internal mammary artery (IMA) preparations from coronary by-pass surgery (8 patients) at three different levels of vascular tone using isolated ring technique. It is known that IMA may produce spasm during and after graft surgery especially at low perfusion pressure (at or lower than 50 mmHg).
Isometric stretch was applied perpendicular to the direction of blood flow for 45 min in organ bath containing oxygenated Krebs-Henseleit solution (37° C., pH 7.4). Magnitude of stretch (in mN) was converted into quasi-equivalent pressure values (23, 46 and 92 mmHg) according to the Laplace law. Isolated IMA rings were contracted with noradrenaline (1-10 μM), and at the steady state contraction, levosimendan (0.3 and 0.6 μM) was added cumulatively.

“And” between values parts separate entries of the source, which are not always exact repeats. Identical values can stand only once.

`CC1CC(=O)NN=C1c1ccc(NN=C(C#N)C#N)cc1` (single isomer, unassigned; (-)) [Levosimendan, (−)-[[4-(1,4,5,6-tetrahydro-4-methyl-6-oxo-3-pyridazinyl)phenyl]hydrazono]propanedinitrile]: the “Prevention (%) of graft vasospasm (as % of maximal attainable spasm)” value (“Prevention (%) of graft vasospasm” below) (23 mmHg transmural pressure, levosimendan 0.3 μM) is 46.1% and 27.2% and 37.5% and 60.0% and 46.7% and 40.0%; the “Prevention (%) of graft vasospasm” value (23 mmHg transmural pressure, levosimendan 0.6 μM) was 76.9% and 125.0% and 45.5% and 62.5% and 0% and 110.0% and 113.3% and 113.0%; the “Prevention (%) of graft vasospasm” value (46 mmHg transmural pressure, levosimendan 0.3 μM) is 28.6% and 75.0% and 13.8% and 8.3% and 57.1% and 16.2% and 37.8% and 17.3%; the “Prevention (%) of graft vasospasm” value (46 mmHg transmural pressure, levosimendan 0.6 μM) was 85.7% and 100.0% and 41.4% and 27.1% and 114.3% and 21.6% and 78.4% and 57.7%; the “Prevention (%) of graft vasospasm” value (92 mmHg transmural pressure, levosimendan 0.3 μM) was 16.6% and 0% and 3.9% and 8.2% and 9.6%; the “Prevention (%) of graft vasospasm” value (92 mmHg transmural pressure, levosimendan 0.6 μM) was 61.6% and 22.0% and 14.9% and 34.7% and 26.7%. Further, the “Prevention of graft vasospasm (result in words)” value (clinically relevant submicromolar concentrations, in particular at low perfusion pressure values) is “prevents graft vasospasm”.
